The target of this test is T1, human dopamine D2long receptor (Homo sapiens, UniProt P14416).
T1 construct: expressed in transfected cells; host or cells: GH4C1 rat pituitary cells
The test is described as follows: Inhibition via dopamine D2 receptors of forskolin-stimulated adenylate cyclase activity (cAMP Flashplate, GH4C1/hD2L cells). It is filed as cell-based. As to conditions: D2 EC50 value divided by D3 EC50 value; where D2 EC50 was >10000, a figure of 10000 was used. The protocol: A suitable assay for determining functionally the activity of a compound at D3 and/or […] dopamine receptors is detailed hereinbelow. Compounds are evaluated as agonists or antagonists at the dopamine D2 and D3 receptors by looking at cAMP levels in a GH4C1 and CHO cell-line expressing the human D2 and D3 receptors, respectively.
Inhibition Via Dopamine D2 Receptors of Forskolin Stimulated Adenylate Cyclase Activity Materials Cell Culture Media:
4× assay stock of 20 μM made by carrying out a 1000-fold dilution in PBS buffer, 25 μl of the 20 μM stock is added to a final assay volume of 100 μl, giving a final assay concentration of 5 μM.
• Pramipexole is included as a reference standard. A 10-point, semi-log curve is generated every 4 plates. Compound responses are normalised to the minimum (0 nM pramipexole) and maximum (100 nM Pramipexole) responses generated by the cells. All test compounds may also be tested via a 10-point (semi-log) curve. • Test compounds are dissolved in 100% DMSO to yield a stock concentration of 10 mM, (1000× the final assay concentration required, e.g. 10 mM will give a top concentration of 10000 nM). • Pramipexole is dissolved in 100% DMSO to give a concentration of 10 mM. […]

T1 sequence (P14416 whole entry): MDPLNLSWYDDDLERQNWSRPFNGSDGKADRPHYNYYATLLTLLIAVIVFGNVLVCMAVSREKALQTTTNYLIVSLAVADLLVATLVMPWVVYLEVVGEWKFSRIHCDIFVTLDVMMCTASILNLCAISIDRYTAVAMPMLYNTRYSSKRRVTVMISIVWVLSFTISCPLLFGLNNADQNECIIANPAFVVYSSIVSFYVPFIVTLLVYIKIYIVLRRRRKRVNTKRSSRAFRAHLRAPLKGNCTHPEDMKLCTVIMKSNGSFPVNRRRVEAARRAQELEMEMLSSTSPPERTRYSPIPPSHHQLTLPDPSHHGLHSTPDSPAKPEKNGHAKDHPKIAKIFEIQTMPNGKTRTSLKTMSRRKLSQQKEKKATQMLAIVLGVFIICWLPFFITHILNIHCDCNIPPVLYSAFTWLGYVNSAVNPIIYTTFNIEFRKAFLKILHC

As for `CCCN1CCO[C@H](c2cccc(O)c2)C1.Cl` [Example 8, R-(−)-3-(4-Propylmorpholin-2-yl)phenol hydrochloride], the “selectivity for D3 over D2” value amounted to 1315.8 fold.
